The compounds below were run on Acinetobacter baumannii (assay: Antimicrobial activity against ISAba1 linked with the blaOXA-51-type beta-lactamase harboring Acinetobacter baumannii zeta clonal group isolate 20 expressing ampC, ompA, adeB, adeM, aacC2 by Etest method).
Format: functional
For `C[C@H]1COc2c(N3CCN(C)CC3)c(F)cc3c(=O)c(C(=O)O)cn1c23.C[C@H]1COc2c(N3CCN(C)CC3)c(F)cc3c(=O)c(C(=O)O)cn1c23.O` [LEVOFLOXACIN], the MIC was 12 µg/mL.

Each compound was assayed on Acinetobacter baumannii (assay: Antimicrobial activity against ISAba1 linked with the blaOXA-51-type beta-lactamase harboring Acinetobacter baumannii zeta clonal group isolate 21 expressing ampC, ompA, adeB, adeM, aacC2, blaSHV-5 by Etest method).
Format: functional
With `C[C@H]1COc2c(N3CCN(C)CC3)c(F)cc3c(=O)c(C(=O)O)cn1c23.C[C@H]1COc2c(N3CCN(C)CC3)c(F)cc3c(=O)c(C(=O)O)cn1c23.O` [LEVOFLOXACIN] the MIC was over 32 µg/mL.

Each compound was assayed on Acinetobacter baumannii (assay: Antimicrobial activity against ISAba1 linked with the blaOXA-51-type beta-lactamase harboring Acinetobacter baumannii zeta clonal group isolate 22 expressing ampC, ompA, adeB, adeM, aadA1, aacA4, aacC2, blaSHV-5 by Etest method).
Format: functional
In the case of `C[C@H]1COc2c(N3CCN(C)CC3)c(F)cc3c(=O)c(C(=O)O)cn1c23.C[C@H]1COc2c(N3CCN(C)CC3)c(F)cc3c(=O)c(C(=O)O)cn1c23.O` [LEVOFLOXACIN], the MIC is reported as 16 µg/mL.

These compounds were tested on Acinetobacter baumannii (assay: Antimicrobial activity against ISAba1 linked with the blaOXA-51-type beta-lactamase harboring Acinetobacter baumannii zeta clonal group isolate 23 expressing ampC, ompA, adeB, adeM, aadA1, aacA4, aacC2, aphA6 by Etest method).
Format: functional
With `C[C@H]1COc2c(N3CCN(C)CC3)c(F)cc3c(=O)c(C(=O)O)cn1c23.C[C@H]1COc2c(N3CCN(C)CC3)c(F)cc3c(=O)c(C(=O)O)cn1c23.O` [LEVOFLOXACIN] the MIC was 12 µg/mL.

These compounds were tested on Acinetobacter baumannii (assay: Antimicrobial activity against ISAba1 linked with the blaOXA-51-type beta-lactamase harboring Acinetobacter baumannii zeta clonal group isolate 24 expressing ampC, ompA, adeB, adeM, aadA1, aacA4, aacC2, blaSHV-5 by Etest method).
Format: functional
`C[C@H]1COc2c(N3CCN(C)CC3)c(F)cc3c(=O)c(C(=O)O)cn1c23.C[C@H]1COc2c(N3CCN(C)CC3)c(F)cc3c(=O)c(C(=O)O)cn1c23.O` [LEVOFLOXACIN] showed an MIC of 16 µg/mL.

What follows are compounds tested on Acinetobacter baumannii (assay: Antimicrobial activity against ISAba1 linked with the blaOXA-51-type beta-lactamase harboring Acinetobacter baumannii zeta clonal group isolate 25 expressing ampC, ompA, adeB, adeM, aadA1, aacA4, aacC2, blaSHV-5 by Etest method).
Format: functional
`C[C@H]1COc2c(N3CCN(C)CC3)c(F)cc3c(=O)c(C(=O)O)cn1c23.C[C@H]1COc2c(N3CCN(C)CC3)c(F)cc3c(=O)c(C(=O)O)cn1c23.O` [LEVOFLOXACIN] gave an MIC of 16 µg/mL.

What follows are compounds tested on Acinetobacter baumannii (assay: Antimicrobial activity against ISAba1 linked with the blaOXA-51-type beta-lactamase harboring Acinetobacter baumannii zeta clonal group isolate 26 expressing ampC, ompA, adeB, adeM, aadA1, aacA4, aacC2, blaSHV-5 by Etest method).
Format: functional
Work on `C[C@H]1COc2c(N3CCN(C)CC3)c(F)cc3c(=O)c(C(=O)O)cn1c23.C[C@H]1COc2c(N3CCN(C)CC3)c(F)cc3c(=O)c(C(=O)O)cn1c23.O` [LEVOFLOXACIN] yielded an MIC of 16 µg/mL.

These compounds were tested on Acinetobacter baumannii (assay: Antimicrobial activity against Acinetobacter baumannii lambda clonal group isolate 27 expressing ampC, ompA, adeB, adeM, aadB, aadA1 by Etest method).
Format: functional
`C[C@H]1COc2c(N3CCN(C)CC3)c(F)cc3c(=O)c(C(=O)O)cn1c23.C[C@H]1COc2c(N3CCN(C)CC3)c(F)cc3c(=O)c(C(=O)O)cn1c23.O` [LEVOFLOXACIN] was tested, and the MIC was 3 µg/mL.

These compounds were tested on Acinetobacter baumannii (assay: Antimicrobial activity against ISAba1 linked with the blaOXA-51-type beta-lactamase harboring Acinetobacter baumannii lambda clonal group isolate 30 expressing ampC, ompA, adeB, adeM, aadB, aadA1 by Etest method).
Format: functional
In the case of `C[C@H]1COc2c(N3CCN(C)CC3)c(F)cc3c(=O)c(C(=O)O)cn1c23.C[C@H]1COc2c(N3CCN(C)CC3)c(F)cc3c(=O)c(C(=O)O)cn1c23.O` [LEVOFLOXACIN], the MIC is reported as 16 µg/mL.

Each compound was assayed on Acinetobacter baumannii (assay: Antimicrobial activity against Acinetobacter baumannii nu clonal group isolate 31 expressing ampC, ompA, adeB, adeM, aadB, aadA2 by Etest method).
Format: functional
In the case of `C[C@H]1COc2c(N3CCN(C)CC3)c(F)cc3c(=O)c(C(=O)O)cn1c23.C[C@H]1COc2c(N3CCN(C)CC3)c(F)cc3c(=O)c(C(=O)O)cn1c23.O` [LEVOFLOXACIN], the MIC is reported as over 12 µg/mL.

The compounds below were run on Acinetobacter baumannii (assay: Antimicrobial activity against Acinetobacter baumannii nu clonal group isolate 32 expressing ampC, ompA, adeB, adeM, aadB, aadA2 by Etest method).
Format: functional
Work on `C[C@H]1COc2c(N3CCN(C)CC3)c(F)cc3c(=O)c(C(=O)O)cn1c23.C[C@H]1COc2c(N3CCN(C)CC3)c(F)cc3c(=O)c(C(=O)O)cn1c23.O` [LEVOFLOXACIN] yielded an MIC of over 12 µg/mL.

The compounds below were run on Acinetobacter baumannii (assay: Antimicrobial activity against Acinetobacter baumannii nu clonal group isolate 33 expressing ampC, ompA, adeB, adeM by Etest method).
Format: functional
`C[C@H]1COc2c(N3CCN(C)CC3)c(F)cc3c(=O)c(C(=O)O)cn1c23.C[C@H]1COc2c(N3CCN(C)CC3)c(F)cc3c(=O)c(C(=O)O)cn1c23.O` [LEVOFLOXACIN] gave an MIC of 4 µg/mL.

Each compound was assayed on Acinetobacter baumannii (assay: Antimicrobial activity against Acinetobacter baumannii nu clonal group isolate 34 expressing ampC, ompA, adeB, adeM by Etest method).
Format: functional
In the case of `C[C@H]1COc2c(N3CCN(C)CC3)c(F)cc3c(=O)c(C(=O)O)cn1c23.C[C@H]1COc2c(N3CCN(C)CC3)c(F)cc3c(=O)c(C(=O)O)cn1c23.O` [LEVOFLOXACIN], the MIC is reported as 4 µg/mL.

Each compound was assayed on Acinetobacter baumannii (assay: Antimicrobial activity against Acinetobacter baumannii eta clonal group isolate 35 expressing ampC, ompA, adeB, adeM by Etest method).
Format: functional
For `C[C@H]1COc2c(N3CCN(C)CC3)c(F)cc3c(=O)c(C(=O)O)cn1c23.C[C@H]1COc2c(N3CCN(C)CC3)c(F)cc3c(=O)c(C(=O)O)cn1c23.O` [LEVOFLOXACIN], the MIC was over 6 µg/mL.

Each compound was assayed on Acinetobacter baumannii (assay: Antimicrobial activity against Acinetobacter baumannii eta clonal group isolate 36 expressing ampC, ompA, adeB, adeM by Etest method).
Format: functional
`C[C@H]1COc2c(N3CCN(C)CC3)c(F)cc3c(=O)c(C(=O)O)cn1c23.C[C@H]1COc2c(N3CCN(C)CC3)c(F)cc3c(=O)c(C(=O)O)cn1c23.O` [LEVOFLOXACIN] gave an MIC of over 6 µg/mL.

What follows are compounds tested on Acinetobacter baumannii (assay: Antimicrobial activity against Acinetobacter baumannii unique clonal group isolate 37 expressing ampC, ompA, adeB, adeM by Etest method).
Format: functional
`C[C@H]1COc2c(N3CCN(C)CC3)c(F)cc3c(=O)c(C(=O)O)cn1c23.C[C@H]1COc2c(N3CCN(C)CC3)c(F)cc3c(=O)c(C(=O)O)cn1c23.O` [LEVOFLOXACIN] showed an MIC of 6 µg/mL.

Each compound was assayed on Acinetobacter baumannii (assay: Antimicrobial activity against Acinetobacter baumannii unique clonal group isolate 38 expressing ampC, ompA, adeB, adeM by Etest method).
Format: functional
Compound `C[C@H]1COc2c(N3CCN(C)CC3)c(F)cc3c(=O)c(C(=O)O)cn1c23.C[C@H]1COc2c(N3CCN(C)CC3)c(F)cc3c(=O)c(C(=O)O)cn1c23.O` [LEVOFLOXACIN] has an MIC of 0.13 µg/mL.

The compounds below were run on Acinetobacter baumannii (assay: Antimicrobial activity against Acinetobacter baumannii unique clonal group isolate 39 expressing ampC, ompA, adeM by Etest method).
Format: functional
`C[C@H]1COc2c(N3CCN(C)CC3)c(F)cc3c(=O)c(C(=O)O)cn1c23.C[C@H]1COc2c(N3CCN(C)CC3)c(F)cc3c(=O)c(C(=O)O)cn1c23.O` [LEVOFLOXACIN] gave an MIC of 0.09 µg/mL.

The compounds below were run on Acinetobacter baumannii (assay: Antimicrobial activity against ISAba1 linked with the blaOXA-51-type beta-lactamase harboring Acinetobacter baumannii unique clonal group isolate 40 expressing ampC, ompA, adeB, adeM, aadA1, aacA4, aacC2, blaSHV-5 by Etest method).
Format: functional
For `C[C@H]1COc2c(N3CCN(C)CC3)c(F)cc3c(=O)c(C(=O)O)cn1c23.C[C@H]1COc2c(N3CCN(C)CC3)c(F)cc3c(=O)c(C(=O)O)cn1c23.O` [LEVOFLOXACIN], the MIC was over 32 µg/mL.
